Measured values as given in patent publication US7659299B2, “Compounds inhibiting the binding of sap for treating osteoarthritis” (Pentraxin Therapeutics Limited, priority 2003, dated 2010).

Target: SAP (Homo sapiens, UniProt P02743)
Test: Treatment of patients with osteoarthritis: plasma SAP concentration and joint symptoms
Type: in vivo
Design: 5 μl of radiolabelled SAP in TN; from tissue
Settings: patient
Excerpt: 1) The patient, a person retired General Practitioner living in New Zealand, has a long history of bone and joint injuries, starting as a child on a farm and continuing as a teenager and then adult playing rugby and skiing. They have suffered from pain and swelling of previously damaged joints following manual work and especially in cold weather. The proximal interphalangeal joints of the left middle and right fourth fingers, the right elbow and the mid-thoracic intervertebral joints have been most affected. Symptoms and signs have progressively worsened over the past 22 years, so that their capacity for physical work had become very restricted and during winter they have required frequent or continuous treatment with non-steroidal anti-inflammatory drugs. These are all typical manifestations of osteoarthritis. In 2000 the discovery of impaired renal function led eventually to a second, and completely separate diagnosis of hereditary systemic amyloidosis caused by a mutation in the gene for fibrinogen A α-chain.
They started experimental treatment for their amyloidosis on 9 Oct. 2001 with (R)-1-[6-[(R)-2-Carboxy-pyrrolidin-1-yl]-6-oxo-hexanoyl]pyrrolidine-2-carboxylic acid, 10 mg b.d. by subcutaneous injection. […] This improvement was sustained and increased so that by April 2002, the autumn in New Zealand, it was impressively beyond doubt. Throughout that winter, for the first time in many years, […] no longer required treatment with non-steroidal anti-inflammatory drugs, despite increased physical activity. […] Over the past few months they have been doing regular hard physical work on the land, fencing and landscaping, including lifting and carrying significant weights, without suffering any of the pain and swelling that previously severely affected them even without the stress of unusual physical activity.
Their shoulders were painful, particularly when reaching up or behind their head, making drying their hair and some household tasks painful and difficult. […] They also experienced pain in their right wrist when performing some tasks, particularly opening jars, a manoeuvre that they found difficult. These symptoms are all compatible with osteoarthritis.
CD has hereditary systemic amyloidosis caused by a mutation in the gene for apolipoprotein AI, diagnosed in October 2001 during investigation of chronic renal impairment. […] They started experimental treatment for their amyloidosis on 22 Oct. 2001 with (R)-1-[6-[(R)-2-Carboxy-pyrrolidin-1-yl]-6-oxo-hexanoyl]pyrrolidine-2-carboxylic acid, 15 mg b.d. by subcutaneous injection. […] Treatment with (R)-1-[6-[(R)-2-Carboxy-pyrrolidin-1-yl]-6-oxo-hexanoyl]pyrrolidine-2-carboxylic acid finished in October 2002 and their remarkable remission has continued to the present (June 2003).

Sequence of SAP (P02743 20-223): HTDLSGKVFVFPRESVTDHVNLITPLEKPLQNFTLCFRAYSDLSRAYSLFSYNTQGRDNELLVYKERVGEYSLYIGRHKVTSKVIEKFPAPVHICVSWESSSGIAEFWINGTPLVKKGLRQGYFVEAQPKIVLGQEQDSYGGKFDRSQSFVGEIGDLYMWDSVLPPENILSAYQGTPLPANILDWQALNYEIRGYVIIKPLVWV

O=C(O)[C@H]1CCCN1C(=O)CCCCC(=O)N1CCC[C@@H]1C(=O)O [Ro-63-8695, (R)-1-[6-[(R)-2-Carboxy-pyrrolidin-1-yl]-6-oxo-hexanoyl]pyrrolidine-2-carboxylic acid]
plasma SAP concentration reduced by (10 mg b.d. subcutaneous injection, after three months): over 95% | symptoms of osteoarthritis (10 mg b.d. subcutaneous injection, treatment Oct. 2001 to June 2003): remained in remission | plasma SAP concentration reduced by (15 mg b.d. subcutaneous injection, after two months): over 95% | joint pain and function (15 mg b.d. subcutaneous injection, by January 2002 (start 22 Oct. 2001)): free of pain and had normal function of their joints
